These results are taken from US20260049282A1, “METHOD FOR REMOVING SENESCENT CELL, AND METHOD FOR PREPARING SENESCENT CELL” (The University of Tokyo, priority 2018, published 2026).

The test system of test [1] is ApoE knockout mice on atherogenetic diet. Kind of test: Obesity-associated atherosclerosis in ApoE knockout mice (Sudan IV staining of aorta). To be noted: atherogenetic diet 8 weeks, BPTES 0.25 mg/20 g/200 μl i.p. 3 times a week in latter 4 weeks. The test is classed as in vivo. How it is done:
C57BL/6J ApoE knockout mice (8 weeks old) were maintained on an atherogenetic diet (D12108C, Research Diets Inc.) for 8 weeks. […] In addition, C57BL/6J wild-type male mice (8 weeks old) were maintained on a normal diet as controls. All aortas except the arterial arch were cleanly depleted of adventitial fat, incised, and fixed flat in 4% […] at 25° C. for 12 hours. The aorta was washed with 70% ethanol for 5 minutes, incubated in 0.5% Sudan IV (in 1:1 acetone/ethanol) for 5 minutes, and then washed 3 times with 80% ethanol for 1 minute. Plaque formed in the aorta was stained with Sudan IV, the Sudan IV-positive area was quantified with ImageJ, and the plaque number was counted under a microscope.

For test [2], the system named is normal cells (normal human fibroblasts HCA2). Kind of test: Viable cell count (trypan blue) of normal cells treated with glutaminase inhibitor. The test is classed as cell-based. The conditions noted are these: BPTES final concentration 10 μM, 3 days. The protocol:
(§1) Senescent cells and normal cells were seeded in 6-cm culture dishes such that approximately 10,000 cells were in each dish.

Test [3] has as its system intracellular pH in senescent cells. The experiment in a line: Intracellular pH measurement. The test is classed as cell-based, human. Set-up: dose or concentration left out as unconfirmed. The conditions noted are these: BPTES final concentration, 24 hours; normal level about 7.4. How it is done: Next, senescent cells and normal cells were separately seeded in 6-cm well plates such that approximately 50,000 cells were in each plate. […] The medium was removed, culture was performed at 37° C. and 5% CO2 for 10 minutes in a HEPES solution containing […] (DOJINDO LABORATORIES) at a final concentration of 3 μM, and washing with the HEPES solution was performed three times. Thereafter, luminescence was measured with a plate reader. In order to determine the pH value, the amount of luminescence of cells treated with the HEPES solution (pH 6.0 to 7.6) containing nigericin at a final concentration of 10 μM was corrected.

The subject of a further test is mice fed a high fat diet. Kind of test: Obesity-associated senescent cell accumulation, macrophage infiltration and hypertrophy of white adipose tissue (high-fat diet mice). It is filed as in vivo. To be noted: high-fat diet 8 weeks, BPTES 0.25 mg/20 g/200 μl i.p. 3 times a week in latter 4 weeks. How it is done:
Eight-week-old male mice (C57BL/6N) were maintained on a high-fat diet (HFD32, CLEA Japan) or a normal diet for 8 weeks. […] Then, white adipose tissue was collected from mice, and the accumulation of senescent cells was examined by SA-β-gal staining, and macrophage infiltration was examined by immunostaining with the anti-F4/80 antibody. In situ staining with SA-β-gal and the determination of the abundance ratio of SA-β-gal positive cells were carried out as described in 2-5-2. The degree of macrophage infiltration was determined as described in 2-5-1. The adipocyte size was measured with a BZ-X analyzer (Keyence).

Another test relates to aged mice (76 weeks old). The experiment in a line: Age-associated dysfunction of kidney, lung, heart and liver in aged mice. The test is classed as in vivo. The conditions noted are these: BPTES 0.25 mg/20 g/200 μl intraperitoneally, 1 month. The source says: It is examined whether removal of senescent cells by inhibition of glutaminolysis could improve aging or age-associated organ dysfunction.
The kidney, lung, liver, and heart were embedded with an OCT compound, thereby preparing frozen sections. Thereafter, tissue staining with hematoxylin-eosin (H&E), tissue staining with a Masson trichrome (MT) reagent, a periodic acid Schiff (PAS) reagent (Fisher Scientific), or immunostaining with DAB (3,3′-diaminobenzidine tetrahydrochloride) (DAKO) using an anti-F4-80 antibody (CST) was performed. After staining, tissue sections were observed under a microscope.
Kidney glomerulosclerosis was evaluated for 40 glomeruli per individual based on PAS-positive intensity and range. In addition, the serum urea concentration and creatinine concentration were measured using the Urea Assay kit (Abcam) and the Creatinine Assay kit (Abcam), respectively.
The degree of lung fibrosis was assessed by MT staining. […] In addition, when the MT-stained area was quantified by a BZ-X analyzer (Keyence), the degree of fibrosis was improved in the lungs of BPTES-treated mice as compared with the lungs of control mice (FIG. 7B, top).
For the heart, MT staining of heart tissue sections was performed so as to assess the degree of fibrosis (FIG. 8A). In addition, the heart weight was weighed, and the cardiomyocyte size was measured with a BZ-X analyzer (Keyence). As for the heart, the degree of fibrosis in the heart of BPTES-treated mice was improved as compared with the control mice (FIG. 8B).
Liver tissue sections were immunostained with an anti-F4/80 antibody (FIG. 9A) so as to assess the degree of macrophage infiltration. The degree of macrophage infiltration in the liver of BPTES-treated mice was improved compared to control mice (FIG. 9B).

For test [4], the system named is senescent cells. Kind of test: Cell viability of BPTES-treated cells in weakly basic medium (trypan blue count). The test is classed as cell-based, human. To be noted: BPTES 10 μM. The protocol:
Next, the pH of the medium of BPTES-treated cells was made weakly basic (pH 8.0 or pH 8.5), and the cell viability was examined.
(§2) Senescent cells and normal cells were separately seeded in 6-cm culture dishes such that approximately 10,000 cells were in each dish. […] Thereafter, the cells were stained with trypan blue every 24 hours, and the number of viable cells was counted using a hemocytometer.

Test [5] has as its system p16 mRNA (marker of senescent cells). The experiment in a line: Removal of senescent cells in vivo: p16 mRNA by qPCR in organs of aged mice. To be noted: 96-week-old C57BL6/N male mice, 12.5 mg/kg body weight once a week for 1 month. The protocol:
Then, each mouse was dissected, RNA was extracted by homogenizing the heart, brain, kidney, and liver, and total RNA was prepared using the RNeasy mini kit (Qiagen) according to the attached protocol and reverse transcribed into cDNA using the ReverTra Ace qPCR RT kit (Takara). Using the obtained cDNA, the expression level of p16 mRNA, which is a marker of senescent cells, was analyzed by qPCR using Power SYBR Green PCR Master Mix (Applied Biosystems). The p16 mRNA expression level was corrected by the value of GAPDH. Primers for detecting the p16 mRNA expression level are shown below.

Test [6] has as its system mice on choline-deficient L-amino acid-defined high-fat diet. The experiment in a line: Liver dysfunction associated with non-alcoholic steatohepatitis (choline-deficient L-amino acid-defined high-fat diet mice). The test is classed as in vivo. To be noted: NASH diet 8 weeks, BPTES 0.25 mg/20 g/200 μl i.p. 3 times a week in latter 4 weeks. The protocol:
Eight-week-old male mice (C57BL/6N) were maintained on a choline-deficient L-amino acid-defined high-fat diet (A06071302, Research Diets Inc.) for 8 weeks. […] The serum AST level and the hydroxyproline (OH-Pro) level in the liver were measured by the AST assay kit (Abcam) and the Hydroxyproline assay kit (Abcam), respectively. In addition, the expression levels of p16, KGA, and IL-6 were measured by qPCR. Primers for qPCR are shown below.

Test [7] relates to IL-6 and IL-8 mRNA expression. Kind of test: qPCR of SASP factors IL-6 and IL-8 mRNA in senescent cells. To be noted: BPTES 2.5 μM, 24 hours. It is filed as cell-based, human. How it is done:
After reverse transcription from total RNA into cDNA using the SuperScript II cDNA synthesis kit (Invitrogen) was performed, qPCR analysis was performed using the Power SYBR Green PCR Master Mix (Applied Biosystems) so as to measure the IL-6 and IL-8 expression levels. Primers for detecting the IL-6 and IL-8 mRNA expression levels are shown below.

Test [8] deals with ammonia production in senescent cells. Kind of test: Intracellular ammonia quantification (ammonia assay kit). It is filed as cell-based, human. To be noted: BPTES final concentration 10 μM, 24 hours. The source says:
Senescent cells and normal cells were separately seeded in 10-cm culture dishes such that approximately 50,000 cells were in each dish. […] Thereafter, the amount of ammonia in cells was quantified using the ammonia assay kit (abcam).

Test [9] has as its system senescent cells. The experiment in a line: Effect of mPTP inhibitors on cell death of BPTES-treated cells (trypan blue count). The test is classed as cell-based, human. To be noted: BPTES 10 μM alone. The protocol:
The previous reports have shown that lowering intracellular pH causes apoptosis-independent cell death through the opening of mitochondrial permeability transition pore (mPTP) by the BNIP3 protein. Therefore, the effects of mPTP inhibitors (DUB and CsA) on BPTES-treated cells were examined.
as §2

Test [10] deals with S6K protein T389 phosphorylation (indicator of activation of mTOR). Kind of test: Western blotting of S6K protein T389 phosphorylation in senescent cells. The test is classed as cell-based, human. The protocol: Further, the molecular mechanism of SASP inhibition was analyzed. […] Cell extracts were prepared from the cultured cells using Laemmli-buffer (2% SDS, 10% glycerol, 5% 2-mercaptoethanol, 0.002% bromophenol blue, and 62.5 mM Tris HCl at pH 6.8). Cell extracts (20 to 50 μg) were separated by SDS-PAGE, and after transcription to PVDF membrane, Western blotting was performed using an antibody to the T389 phosphorylation site of the […] protein (CST), an antibody to the S6K protein (CST), and an antibody to the p16 protein (abcam), and detection was performed by ECL.
(In general: In western blotting, separated proteins are transferred to a membrane and probed.)

In test [11] the test system is senescent cells (senescence-induced normal human fibroblasts HCA2). The experiment in a line: Viable cell count (trypan blue) of senescent cells treated with glutaminase inhibitor. The test is classed as cell-based. How it is done:
RO3306 (SIGMA-ALDRICH) (final concentration: 9 μM) was added to normal human fibroblasts (HCA2), followed by culture at 37° C. and 5% CO2 for 16 hours. Next, culture was performed at 37° C. and 5% CO2 for 8 hours in a culture medium containing RO3306 (final concentration: 9 μM) and Nutlin-3a (SIGMA-ALDRICH) (final concentration: 10 μM), and then culture was performed at 37° C. and 5% CO2 for 48 hours in a culture medium containing Nutlin-3a (final concentration: 10 μM). Culture was performed at 37° C. and 5% CO2 for 9 days while replacing the medium with a medium containing BI2536 (SIGMA-ALDRICH) (final concentration: 100 nM) every 3 days. Thereafter, senescence induction was carried out by performing culture at 37° C. and 5% CO2 for 9 days while replacing the medium with a normal medium (FIG. 1A).
as §1

For the compound `O=C(Cc1ccccc1)Nc1nnc(CCSCCc2nnc(NC(=O)Cc3ccccc3)s2)s1` [BPTES, bis-2-(5-phenylacetamido-1,3,4-thiadiazol-2-yl)ethyl sulfide], in [1], the “aortic plaque area (Sudan IV-positive area)” value is recorded as “reduces” and the aortic plaque number result was “reduces”. Moreover, the “number of cells (viable cells)” value in test [2] is given as “increase in the number of cells”. Further, in [3], the “intracellular pH in senescent cells” value is given as “about 6.0”. Further, in the test with mice fed a high fat diet, the “accumulation of senescent cells associated with obesity (SA-β-gal, white adipose tissue)” value is “reduced”; the “degree of macrophage infiltration in white adipose tissue (anti-F4/80)” value is reported as “reduced”; the “size of adipocytes associated with obesity” value is “reduced”; the “weight of white adipose tissue” value is “reduced”. In the test on aged mice (76 weeks old), the cardiomyocyte size entry was “smaller than that of control mice”, the heart weight entry is listed as “lighter than that of young mice”, the serum creatinine concentration result is listed as “reduced” and the serum urea concentration entry is on record as “reduced”. In the test on aged mice (76 weeks old) (vs control mice), the “degree of fibrosis in the heart (MT staining)” value is “improved”, the “degree of glomerulosclerosis (PAS staining)” value is on record as “improved”, the “degree of lung fibrosis (MT-stained area)” value is listed as “improved” and the “degree of macrophage infiltration in the liver (anti-F4/80 immunostaining)” value is given as “improved”. In addition, the “cell death seen with BPTES treatment” value with senescent cells [4] (medium not weakly basic (pH 7.4)) was “at least 90%”. In addition, the “cell death with BPTES under weakly basic pH conditions” value in the test on senescent cells [4] (medium pH 8.0 or pH 8.5) is on record as “about 30%”. For the same compound, in [5], the “p16 mRNA expression in the brain” value was “decreased”, the “p16 mRNA expression in the heart” value is reported as “decreased”, the “p16 mRNA expression in the kidney” value is recorded as “decreased” and the “p16 mRNA expression in the liver” value is on record as “decreased”. Further, in test [6], the “IL-6 expression level in the liver (qPCR)” value was “lowers”, the “KGA expression level in the liver (qPCR)” value is “lowers”, the “hydroxyproline (OH-Pro) level in the liver” value is “lowers” and the “p16 expression level in the liver (qPCR)” value is recorded as “lowers”. Further, the “serum AST level” value in test [6] is recorded as “lowers”. In addition, in [7], the “IL-6 mRNA expression” value was “inhibits mRNA expression” and the “IL-8 mRNA expression” value is listed as “inhibits mRNA expression”. In addition, the “ammonia production in senescent cells” value in [8] was “suppresses the increased ammonia production in senescent cells to the same level as in normal cells”. In addition, in the test with senescent cells [9], the “cell death seen with BPTES treatment” value is recorded as “at least 90%”. Moreover, the “phosphorylation of the S6K protein T389” value in test [10] (BPTES 2.5 μM, 24 hours) is “inhibits phosphorylation”. Moreover, the “impact on the survival of senescent cells” value in test [11] (BPTES final concentration 2.5 μM) is on record as “little impact”.
As to `COC(=O)CCC(=O)C(=O)OC` [DM-KG], in test [10] (BPTES plus DM-KG), the “rescue of the BPTES inhibitory effect on S6K T389 phosphorylation” value is reported as “rescued”. Moreover, in [11] (BPTES 10 μM plus transmembrane α-ketoglutaric acid), the “rescue of senescent cell-selective cell death caused by BPTES” value is “could hardly rescue”.
